Experiments:
[1] = biological target: Serine/threonine-protein kinase haspin (Homo sapiens) (UniProt Q8TF76); conditions: Compound concentration 1000.0 nM
[2] = biological target: Platelet-derived growth factor receptor beta (Homo sapiens) (UniProt P09619); conditions: Compound concentration 1000.0 nM
[3] = biological target: Citron Rho-interacting kinase (Homo sapiens) (UniProt O14578); conditions: Compound concentration 1000.0 nM
[4] = biological target: NT-3 growth factor receptor (Homo sapiens) (UniProt Q16288); conditions: Compound concentration 1000.0 nM
[5] = biological target: Phosphatidylinositol 4-kinase beta (Homo sapiens) (UniProt Q9UBF8); conditions: Compound concentration 1000.0 nM
[6] = tested on: Proto-oncogene tyrosine-protein kinase receptor Ret (Homo sapiens), P07949 [V804M]; conditions: Compound concentration 1000.0 nM
[7] = biological target: SNF-related serine/threonine-protein kinase (Homo sapiens) (UniProt Q9NRH2); conditions: Compound concentration 1000.0 nM
[8] = biological target: Cyclin-dependent kinase 4 (Homo sapiens) (UniProt P11802); conditions: Compound concentration 1000.0 nM
[9] = biological target: Tyrosine-protein kinase receptor UFO (Homo sapiens) (UniProt P30530); conditions: Compound concentration 1000.0 nM
[10] = biological target: Vascular endothelial growth factor receptor 1 (Homo sapiens) (UniProt P17948); conditions: Compound concentration 1000.0 nM
[11] = biological target: Tyrosine-protein kinase Lyn (Homo sapiens) (UniProt P07948); conditions: Compound concentration 1000.0 nM
[12] = biological target: D(1A) dopamine receptor (Homo sapiens) (UniProt P21728); conditions: Compound concentration 10.0 uM
[13] = biological target: Serine/threonine-protein kinase pim-2 (Homo sapiens) (UniProt Q9P1W9); conditions: Compound concentration 1000.0 nM
[14] = biological target: Ribosomal protein S6 kinase alpha-1 (Homo sapiens) (UniProt Q15418); conditions: Compound concentration 1000.0 nM
[15] = biological target: Mitogen-activated protein kinase 12 (Homo sapiens) (UniProt P53778); conditions: Compound concentration 1000.0 nM
[16] = biological target: Serine/threonine-protein kinase 38-like (Homo sapiens) (UniProt Q9Y2H1); conditions: Compound concentration 1000.0 nM
[17] = biological target: STE20/SPS1-related proline-alanine-rich protein kinase (Homo sapiens) (UniProt Q9UEW8); conditions: Compound concentration 1000.0 nM
[18] = biological target: Calcium/calmodulin-dependent protein kinase kinase 1 (Homo sapiens) (UniProt Q8N5S9); conditions: Compound concentration 1000.0 nM
[19] = biological target: Ephrin type-A receptor 6 (Homo sapiens) (UniProt Q9UF33); conditions: Compound concentration 1000.0 nM
[20] = biological target: Serine/threonine-protein kinase TAO3 (Homo sapiens) (UniProt Q9H2K8); conditions: Compound concentration 1000.0 nM
[21] = biological target: High affinity nerve growth factor receptor (Homo sapiens) (UniProt P04629); conditions: Compound concentration 1000.0 nM
[22] = biological target: Myosin-IIIa (Homo sapiens) (UniProt Q8NEV4); conditions: Compound concentration 1000.0 nM
[23] = biological target: Discoidin domain-containing receptor 2 (Homo sapiens) (UniProt Q16832); conditions: Compound concentration 1000.0 nM
[24] = biological target: Testis-specific serine/threonine-protein kinase 3 (Homo sapiens) (UniProt Q96PN8); conditions: Compound concentration 1000.0 nM
[25] = biological target: Serine/threonine-protein kinase PAK 3 (Homo sapiens) (UniProt O75914); conditions: Compound concentration 1000.0 nM
[26] = biological target: Calcium-dependent protein kinase 1 (Plasmodium falciparum) (UniProt P62344); conditions: Compound concentration 1000.0 nM
[27] = biological target: Dual specificity mitogen-activated protein kinase kinase 4 (Homo sapiens) (UniProt P45985); conditions: Compound concentration 1000.0 nM
[28] = biological target: Alpha-2B adrenergic receptor (Homo sapiens) (UniProt P18089); conditions: Compound concentration 10.0 uM
[29] = biological target: Serine/threonine-protein kinase BRSK1 (Homo sapiens) (UniProt Q8TDC3); conditions: Compound concentration 1000.0 nM
[30] = biological target: 5'-AMP-activated protein kinase catalytic subunit alpha-2 (Homo sapiens) (UniProt P54646); conditions: Compound concentration 1000.0 nM
[31] = biological target: Serine/threonine-protein kinase 32C (Homo sapiens) (UniProt Q86UX6); conditions: Compound concentration 1000.0 nM
[32] = tested on: Epidermal growth factor receptor (Homo sapiens), P00533 [UNDEFINED MUTATION]; conditions: Compound concentration 1000.0 nM
[33] = biological target: Serine/threonine-protein kinase RIO3 (Homo sapiens) (UniProt O14730); conditions: Compound concentration 1000.0 nM
[34] = biological target: Dual serine/threonine and tyrosine protein kinase (Homo sapiens) (UniProt Q6XUX3); conditions: Compound concentration 1000.0 nM
[35] = biological target: Serine/threonine-protein kinase PAK 5 (Homo sapiens) (UniProt Q9P286); conditions: Compound concentration 1000.0 nM
[36] = biological target: G protein-coupled receptor kinase 4 (Homo sapiens) (UniProt P32298); conditions: Compound concentration 1000.0 nM
[37] = tested on: Receptor-type tyrosine-protein kinase FLT3 (Homo sapiens), P36888 [N841I]; conditions: Compound concentration 1000.0 nM
[38] = biological target: Mitogen-activated protein kinase 6 (Homo sapiens) (UniProt Q16659); conditions: Compound concentration 1000.0 nM
[39] = tested on: Epidermal growth factor receptor (Homo sapiens), P00533 [L858R]; conditions: Compound concentration 1000.0 nM
[40] = biological target: Serine/threonine-protein kinase pim-1 (Homo sapiens) (UniProt P11309); conditions: Compound concentration 1000.0 nM
[41] = biological target: Mitogen-activated protein kinase 15 (Homo sapiens) (UniProt Q8TD08); conditions: Compound concentration 1000.0 nM
[42] = biological target: Non-receptor tyrosine-protein kinase TYK2 (Homo sapiens) (UniProt P29597); conditions: Compound concentration 1000.0 nM
[43] = biological target: Tyrosine-protein kinase JAK3 (Homo sapiens) (UniProt P52333); conditions: Compound concentration 1000.0 nM
[44] = biological target: Dual specificity protein kinase CLK4 (Homo sapiens) (UniProt Q9HAZ1); conditions: Compound concentration 1000.0 nM
[45] = biological target: Calcium/calmodulin-dependent protein kinase type 1B (Homo sapiens) (UniProt Q6P2M8); conditions: Compound concentration 1000.0 nM

Sequence of Vascular endothelial growth factor receptor 1 (Homo sapiens) (P17948 whole entry): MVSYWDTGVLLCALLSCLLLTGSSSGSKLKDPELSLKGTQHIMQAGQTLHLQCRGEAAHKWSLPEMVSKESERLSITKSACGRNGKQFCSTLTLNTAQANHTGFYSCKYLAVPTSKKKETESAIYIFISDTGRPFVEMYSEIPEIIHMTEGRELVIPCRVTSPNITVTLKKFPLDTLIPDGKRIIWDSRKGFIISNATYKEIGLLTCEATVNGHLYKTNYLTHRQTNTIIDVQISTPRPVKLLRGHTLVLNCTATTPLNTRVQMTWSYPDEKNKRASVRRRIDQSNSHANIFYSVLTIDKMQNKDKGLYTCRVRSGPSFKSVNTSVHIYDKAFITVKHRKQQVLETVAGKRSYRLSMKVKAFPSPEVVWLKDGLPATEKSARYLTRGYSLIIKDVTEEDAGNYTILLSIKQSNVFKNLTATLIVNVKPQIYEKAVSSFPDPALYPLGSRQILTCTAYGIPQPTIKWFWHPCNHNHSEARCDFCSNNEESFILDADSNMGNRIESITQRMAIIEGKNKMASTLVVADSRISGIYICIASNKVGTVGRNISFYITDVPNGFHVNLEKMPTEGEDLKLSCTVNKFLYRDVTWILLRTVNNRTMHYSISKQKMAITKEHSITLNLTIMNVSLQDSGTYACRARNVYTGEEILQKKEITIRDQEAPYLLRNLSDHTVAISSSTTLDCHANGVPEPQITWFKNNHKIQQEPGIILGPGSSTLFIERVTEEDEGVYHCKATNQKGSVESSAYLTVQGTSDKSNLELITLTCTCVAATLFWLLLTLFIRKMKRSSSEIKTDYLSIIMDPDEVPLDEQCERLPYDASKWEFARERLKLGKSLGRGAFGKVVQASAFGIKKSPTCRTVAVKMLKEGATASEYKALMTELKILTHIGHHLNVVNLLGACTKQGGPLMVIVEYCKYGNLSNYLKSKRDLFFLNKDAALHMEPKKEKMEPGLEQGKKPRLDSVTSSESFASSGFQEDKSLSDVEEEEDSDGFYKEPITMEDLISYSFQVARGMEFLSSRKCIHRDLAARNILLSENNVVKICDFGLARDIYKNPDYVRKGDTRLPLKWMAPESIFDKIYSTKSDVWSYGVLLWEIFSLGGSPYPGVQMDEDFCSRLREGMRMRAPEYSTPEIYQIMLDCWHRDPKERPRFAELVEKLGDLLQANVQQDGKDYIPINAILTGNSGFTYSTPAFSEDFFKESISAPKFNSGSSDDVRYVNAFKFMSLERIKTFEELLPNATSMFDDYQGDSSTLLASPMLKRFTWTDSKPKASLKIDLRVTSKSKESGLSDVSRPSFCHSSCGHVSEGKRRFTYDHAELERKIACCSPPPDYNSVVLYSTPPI
Sequence of Calcium/calmodulin-dependent protein kinase kinase 1 (Homo sapiens) (Q8N5S9 whole entry, looked up): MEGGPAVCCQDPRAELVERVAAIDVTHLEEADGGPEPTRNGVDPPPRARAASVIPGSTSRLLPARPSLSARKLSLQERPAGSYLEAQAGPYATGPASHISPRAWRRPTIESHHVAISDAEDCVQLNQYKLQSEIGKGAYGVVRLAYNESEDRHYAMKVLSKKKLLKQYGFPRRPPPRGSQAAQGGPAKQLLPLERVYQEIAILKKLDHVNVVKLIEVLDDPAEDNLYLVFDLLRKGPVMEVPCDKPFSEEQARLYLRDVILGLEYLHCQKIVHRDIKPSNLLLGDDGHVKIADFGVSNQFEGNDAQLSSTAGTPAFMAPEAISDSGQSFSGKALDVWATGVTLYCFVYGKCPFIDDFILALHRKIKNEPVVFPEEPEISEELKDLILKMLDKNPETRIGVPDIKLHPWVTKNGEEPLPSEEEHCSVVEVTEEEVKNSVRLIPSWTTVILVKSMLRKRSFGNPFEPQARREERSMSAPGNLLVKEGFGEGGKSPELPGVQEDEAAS
Sequence of Dual serine/threonine and tyrosine protein kinase (Homo sapiens) (Q6XUX3 whole entry): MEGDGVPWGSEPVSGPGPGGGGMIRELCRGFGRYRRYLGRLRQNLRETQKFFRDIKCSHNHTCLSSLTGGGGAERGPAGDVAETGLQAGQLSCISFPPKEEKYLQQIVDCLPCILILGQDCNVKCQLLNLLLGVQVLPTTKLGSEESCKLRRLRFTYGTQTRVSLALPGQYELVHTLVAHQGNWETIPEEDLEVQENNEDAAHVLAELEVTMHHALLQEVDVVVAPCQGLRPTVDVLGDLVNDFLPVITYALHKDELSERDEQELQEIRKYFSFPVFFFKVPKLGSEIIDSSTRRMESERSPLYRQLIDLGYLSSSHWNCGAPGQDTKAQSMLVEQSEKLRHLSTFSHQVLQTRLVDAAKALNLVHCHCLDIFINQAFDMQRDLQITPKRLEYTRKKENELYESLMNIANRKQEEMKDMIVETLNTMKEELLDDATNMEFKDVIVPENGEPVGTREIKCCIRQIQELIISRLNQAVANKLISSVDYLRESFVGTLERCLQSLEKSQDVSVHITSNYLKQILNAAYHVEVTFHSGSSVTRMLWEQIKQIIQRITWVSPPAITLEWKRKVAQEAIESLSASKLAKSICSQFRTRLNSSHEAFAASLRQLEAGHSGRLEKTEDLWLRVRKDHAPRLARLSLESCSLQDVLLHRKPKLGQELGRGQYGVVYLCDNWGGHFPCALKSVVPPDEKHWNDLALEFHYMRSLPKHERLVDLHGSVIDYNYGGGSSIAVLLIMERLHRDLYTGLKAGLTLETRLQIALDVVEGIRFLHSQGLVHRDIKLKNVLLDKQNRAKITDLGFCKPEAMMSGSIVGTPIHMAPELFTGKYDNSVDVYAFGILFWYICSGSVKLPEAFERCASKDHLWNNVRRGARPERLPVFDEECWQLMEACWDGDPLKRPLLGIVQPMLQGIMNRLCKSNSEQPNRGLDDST
Sequence of Cyclin-dependent kinase 4 (Homo sapiens) (P11802 whole entry): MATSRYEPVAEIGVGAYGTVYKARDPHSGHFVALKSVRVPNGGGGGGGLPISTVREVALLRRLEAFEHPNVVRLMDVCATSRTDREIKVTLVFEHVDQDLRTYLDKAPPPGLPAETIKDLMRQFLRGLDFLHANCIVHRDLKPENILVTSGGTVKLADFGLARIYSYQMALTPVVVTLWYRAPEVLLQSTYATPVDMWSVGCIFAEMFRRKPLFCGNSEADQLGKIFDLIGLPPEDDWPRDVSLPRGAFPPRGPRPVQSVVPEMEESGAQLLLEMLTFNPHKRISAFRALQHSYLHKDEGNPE
Sequence of NT-3 growth factor receptor (Homo sapiens) (Q16288 32-839 limits assumed): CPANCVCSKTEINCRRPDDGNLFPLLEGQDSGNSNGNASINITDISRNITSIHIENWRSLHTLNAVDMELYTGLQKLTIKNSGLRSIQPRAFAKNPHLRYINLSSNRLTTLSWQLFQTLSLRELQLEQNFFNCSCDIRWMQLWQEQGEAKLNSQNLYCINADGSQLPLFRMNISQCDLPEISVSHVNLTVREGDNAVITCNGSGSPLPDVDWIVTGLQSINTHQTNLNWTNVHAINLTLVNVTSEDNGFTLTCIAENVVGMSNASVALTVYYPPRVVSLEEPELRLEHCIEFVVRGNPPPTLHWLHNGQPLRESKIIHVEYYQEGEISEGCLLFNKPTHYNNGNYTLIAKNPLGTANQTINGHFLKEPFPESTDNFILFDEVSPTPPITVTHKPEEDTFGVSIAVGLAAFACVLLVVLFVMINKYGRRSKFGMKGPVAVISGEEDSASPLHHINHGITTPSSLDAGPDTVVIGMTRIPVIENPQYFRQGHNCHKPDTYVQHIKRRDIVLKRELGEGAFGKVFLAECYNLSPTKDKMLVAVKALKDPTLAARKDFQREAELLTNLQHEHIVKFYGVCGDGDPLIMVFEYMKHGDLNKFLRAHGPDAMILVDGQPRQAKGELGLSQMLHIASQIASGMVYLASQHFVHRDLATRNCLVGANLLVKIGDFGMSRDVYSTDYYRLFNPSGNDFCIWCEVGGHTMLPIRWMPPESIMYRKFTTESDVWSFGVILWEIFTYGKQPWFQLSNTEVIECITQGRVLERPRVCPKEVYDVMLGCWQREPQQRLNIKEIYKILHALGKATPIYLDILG
Sequence of Serine/threonine-protein kinase PAK 5 (Homo sapiens) (Q9P286 whole entry, looked up): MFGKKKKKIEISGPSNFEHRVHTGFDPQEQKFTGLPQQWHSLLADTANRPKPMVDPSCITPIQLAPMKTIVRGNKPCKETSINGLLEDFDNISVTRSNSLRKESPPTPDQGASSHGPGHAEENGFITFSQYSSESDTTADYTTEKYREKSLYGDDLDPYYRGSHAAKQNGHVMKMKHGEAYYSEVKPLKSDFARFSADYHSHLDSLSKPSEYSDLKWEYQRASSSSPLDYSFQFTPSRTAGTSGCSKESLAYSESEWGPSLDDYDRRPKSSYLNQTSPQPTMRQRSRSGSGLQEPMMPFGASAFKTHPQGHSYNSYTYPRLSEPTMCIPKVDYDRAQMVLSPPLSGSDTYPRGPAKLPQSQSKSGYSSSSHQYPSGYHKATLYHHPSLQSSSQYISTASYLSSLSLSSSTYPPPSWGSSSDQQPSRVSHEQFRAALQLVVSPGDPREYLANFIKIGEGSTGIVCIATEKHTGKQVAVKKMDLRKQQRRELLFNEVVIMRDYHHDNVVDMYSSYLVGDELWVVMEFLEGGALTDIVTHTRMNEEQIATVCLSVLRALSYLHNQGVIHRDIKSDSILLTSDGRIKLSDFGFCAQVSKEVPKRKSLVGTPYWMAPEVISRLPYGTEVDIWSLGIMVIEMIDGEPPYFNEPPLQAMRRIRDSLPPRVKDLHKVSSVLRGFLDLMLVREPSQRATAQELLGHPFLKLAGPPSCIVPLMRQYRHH
Sequence of Testis-specific serine/threonine-protein kinase 3 (Homo sapiens) (Q96PN8 whole entry): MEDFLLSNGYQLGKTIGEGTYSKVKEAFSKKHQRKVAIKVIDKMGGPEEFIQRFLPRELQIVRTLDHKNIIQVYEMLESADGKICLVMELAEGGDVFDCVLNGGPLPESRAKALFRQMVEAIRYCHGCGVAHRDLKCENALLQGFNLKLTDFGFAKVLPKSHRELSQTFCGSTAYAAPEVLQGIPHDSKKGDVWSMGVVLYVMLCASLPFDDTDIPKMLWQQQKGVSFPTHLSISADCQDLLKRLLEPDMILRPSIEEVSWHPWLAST

## CO[C@@H](C)c1c(Nc2ccc([C@H](N(C)C(=O)C3CCS(=O)(=O)CC3)C(F)(F)F)cc2)cnc2cc(Cl)nn12 [NVS-MALT1]
[1]
  residual activity: 100%
[2]
  residual activity: 100%
[3]
  residual activity: 94%
[4]
  residual activity: 100%
[5]
  residual activity: 82%
[6]
  residual activity: 94%
[7]
  residual activity: 100%
[8]
  residual activity: 100%
[9]
  residual activity: 76%
[10]
  residual activity: 82%
[11]
  residual activity: 77%
[12]
  inhibition: 23.7%
[13]
  residual activity: 100%
[14]
  residual activity: 71%
[15]
  residual activity: 98%
[16]
  residual activity: 75%
[17]
  residual activity: 50%
[18]
  residual activity: 80%
[19]
  residual activity: 100%
[20]
  residual activity: 100%
[21]
  residual activity: 80%
[22]
  residual activity: 100%
[23]
  residual activity: 100%
[24]
  residual activity: 81%
[25]
  residual activity: 100%
[26]
  residual activity: 97%
[27]
  residual activity: 100%
[28]
  inhibition: 0.32%
[29]
  residual activity: 78%
[30]
  residual activity: 100%
[31]
  residual activity: 99%
[32]
  residual activity: 98%
[33]
  residual activity: 82%
[34]
  residual activity: 100%
[35]
  residual activity: 100%
[36]
  residual activity: 85%
[37]
  residual activity: 23%
[38]
  residual activity: 92%
[39]
  residual activity: 88%
[40]
  residual activity: 88%
[41]
  residual activity: 87%
[42]
  residual activity: 100%
[43]
  residual activity: 99%
[44]
  residual activity: 94%
[45]
  residual activity: 100%

## CO[C@@H](C)c1c(Nc2ccc([C@@H](N(C)C(=O)C3CCS(=O)(=O)CC3)C(F)(F)F)cc2)cnc2cc(Cl)nn12 [NVS-MALT1-C]
[1]
  residual activity: 100%
[2]
  residual activity: 100%
[3]
  residual activity: 97%
[4]
  residual activity: 100%
[5]
  residual activity: 100%
[6]
  residual activity: 87%
[7]
  residual activity: 100%
[8]
  residual activity: 100%
[9]
  residual activity: 77%
[10]
  residual activity: 85%
[11]
  residual activity: 97%
[12]
  inhibition: 17.9%
[13]
  residual activity: 95%
[14]
  residual activity: 65%
[15]
  residual activity: 92%
[16]
  residual activity: 75%
[17]
  residual activity: 50%
[18]
  residual activity: 98%
[19]
  residual activity: 100%
[20]
  residual activity: 100%
[21]
  residual activity: 93%
[22]
  residual activity: 100%
[23]
  residual activity: 100%
[24]
  residual activity: 79%
[25]
  residual activity: 100%
[26]
  residual activity: 78%
[27]
  residual activity: 100%
[28]
  inhibition: 1.55%
[29]
  residual activity: 93%
[30]
  residual activity: 78%
[31]
  residual activity: 82%
[32]
  residual activity: 100%
[33]
  residual activity: 90%
[34]
  residual activity: 100%
[35]
  residual activity: 100%
[36]
  residual activity: 100%
[37]
  residual activity: 57%
[38]
  residual activity: 91%
[39]
  residual activity: 87%
[40]
  residual activity: 100%
[41]
  residual activity: 81%
[42]
  residual activity: 98%
[43]
  residual activity: 98%
[44]
  residual activity: 92%
[45]
  residual activity: 100%

Reference: ChEMBL document CHEMBL4507320, “Data for DCP probe NVS-MALT1” (2021)
